Data set [1] has as its target T1, functional pRN1 primase (Saccharolobus islandicus, UniProt Q54324).
T1 construct: primase part (catalytic domain plus HBD), residues 40-370, monomeric, expressed in E. coli BL21(DE3) Codon+, Ni2+ IMAC purified (tag not described)
As to the kind of experiment: […] CP-MAS solid-state NMR; 1H-detected hNH NMR. Format: biochemical. The settings on record: formed in situ from ATP^N and dGTP^C on primase-DNA complex; triphosphate remains bound to HBD.

The target in data set [2] is T2, helix-bundle domain (HBD) of pRN1 primase (Saccharolobus islandicus, UniProt Q54324).
T2 construct: helix-bundle domain, residues 256-370, expressed in E. coli BL21(DE3) Codon+, Ni2+ IMAC purified (tag not described)
Put plainly: 1H-15N HSQC NMR titration. The note with it: 10 mM MgCl2, pH 7.0, 298 K. Format: binding.

Data set [3] concerns the target T2, helix-bundle domain (HBD) of pRN1 primase. As to the kind of experiment: 1H-15N HSQC NMR. Type of data set: binding. The note with it: HBD-DNA complex.
Data set [4] has as its target T1, functional pRN1 primase. Put plainly: […] CP-MAS solid-state NMR; 1H-15N HSQC NMR. Type of data set: biochemical. The note with it: primase-DNA complex with dGTP^C; 10 mM MgCl2, pH 7.0; slow substrate.
For data set [5], the target named is T1, functional pRN1 primase. Put plainly: time-resolved solution NMR of dinucleotide formation. Format: biochemical. The note with it: primase-DNA complex.
The target of data set [6] is T3, catalytic domain of pRN1 primase (Saccharolobus islandicus, UniProt Q54324).
T3 construct: catalytic domain, residues 40-248, expressed in E. coli BL21(DE3) Codon+, Ni2+ IMAC purified (tag not described)
As to the kind of experiment: 1H-15N HSQC NMR titration. Format: binding. The note with it: free catalytic domain, no DNA; 10 mM MgCl2, pH 7.0, 298 K; near active site (V148, S150).

The target in data set [7] is T4, functional pRN1 primase (Saccharolobus islandicus, UniProt Q54324, H145A).
T4 construct: primase part (catalytic domain plus HBD), residues 40-370, monomeric, expressed in E. coli BL21(DE3) Codon+, Ni2+ IMAC purified (tag not described)
T4 sequence (Q54324 entry or part of it H145A): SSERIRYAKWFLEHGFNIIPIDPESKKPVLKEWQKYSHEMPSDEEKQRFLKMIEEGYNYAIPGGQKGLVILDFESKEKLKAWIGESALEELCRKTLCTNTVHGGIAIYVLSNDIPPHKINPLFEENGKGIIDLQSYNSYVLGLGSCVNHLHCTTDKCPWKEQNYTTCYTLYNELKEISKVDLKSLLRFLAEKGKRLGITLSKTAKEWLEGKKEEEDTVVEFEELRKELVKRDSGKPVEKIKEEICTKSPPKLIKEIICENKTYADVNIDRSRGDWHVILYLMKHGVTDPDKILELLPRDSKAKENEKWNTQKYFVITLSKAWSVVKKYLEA
As to the kind of experiment: […] CP-MAS solid-state NMR. Format: binding. The note with it: catalytically inactive mutant; primase-DNA complex with ATP^N; 10 mM MgCl2, pH 7.0.

The target of data set [8] is T1, functional pRN1 primase. Put plainly: […] CP-MAS solid-state NMR. Format: biochemical. The note with it: primase-DNA complex with ATP^N; 10 mM MgCl2, pH 7.0, 281 K; bound by HBD, slow substrate.
Data set [9] addresses T5, pRN1 primase (functional primase) (Sulfolobus islandicus (plasmid pRN1), UniProt Q54324 40-370).
T5 sequence: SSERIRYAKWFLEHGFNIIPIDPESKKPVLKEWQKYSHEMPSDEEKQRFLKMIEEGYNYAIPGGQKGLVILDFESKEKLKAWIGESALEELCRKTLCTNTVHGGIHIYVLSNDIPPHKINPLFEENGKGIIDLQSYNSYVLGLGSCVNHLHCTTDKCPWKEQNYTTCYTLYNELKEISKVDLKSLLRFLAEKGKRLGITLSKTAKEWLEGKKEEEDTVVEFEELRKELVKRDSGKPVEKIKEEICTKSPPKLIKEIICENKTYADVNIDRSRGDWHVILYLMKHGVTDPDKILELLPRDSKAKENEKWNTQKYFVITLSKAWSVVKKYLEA
Put plainly: NMR (1H-15N HSQC; 31P CP-MAS); ATPC + dGTPC; HBD titrations: 25 mM sodium phosphate pH 7.0, 75 mM NaCl, 10 mM MgCl2, 298 K, 0.1 mM HBD, HBD:DNA 1:1.1; solid-state NMR on sedimented complex at 278-309 K. The settings on record: protein: recombinant; single strand.

Data set [10] deals with T6, pRN1 primase helix-bundle domain (HBD) (Sulfolobus islandicus (plasmid pRN1), UniProt Q54324 256-370).
T6 sequence: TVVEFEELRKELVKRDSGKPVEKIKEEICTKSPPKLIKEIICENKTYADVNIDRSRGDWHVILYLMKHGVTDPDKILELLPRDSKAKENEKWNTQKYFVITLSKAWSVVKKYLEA
Put plainly: NMR (1H-15N HSQC); ATP + dGTP, 10 mM Mg2+, 298 K; HBD titrations: 25 mM sodium phosphate pH 7.0, 75 mM NaCl, 10 mM MgCl2, 298 K, 0.1 mM HBD, HBD:DNA 1:1.1; solid-state NMR on sedimented complex at 278-309 K. The note with it: protein: recombinant; single strand.

In the next data set the target is T7, pRN1 primase H145A (Sulfolobus islandicus (plasmid pRN1), UniProt Q54324 40-370, H145A).
T7 sequence: T5 sequence with H106A
As to the kind of experiment: solid-state NMR (31P CP-MAS, hNH); ATPN + dGTPC, Mg2+; HBD titrations: 25 mM sodium phosphate pH 7.0, 75 mM NaCl, 10 mM MgCl2, 298 K, 0.1 mM HBD, HBD:DNA 1:1.1; solid-state NMR on sedimented complex at 278-309 K. The settings on record: protein: recombinant; single strand.

The values that follow come from PMC11009956, “Initial Primer Synthesis of a DNA Primase Monitored by Real-Time NMR Spectroscopy” (Journal of the American Chemical Society, 2024).

Substitutions are numbered along the chain they refer to.

Regarding `Nc1nc2c(ncn2[C@H]2C[C@H](O)[C@@H](COP(=O)(O)O[C@H]3[C@@H](O)[C@H](n4cnc5c(N)ncnc54)O[C@@H]3COP(=O)(O)OP(=O)(O)NP(=O)(O)O)O2)c(=O)[nH]1`, the “31P CP-MAS solid-state NMR; 1H-detected hNH NMR” value on functional pRN1 primase [1] was “We attribute this initial increase to dinucleotide formation and subsequent binding to pRN1 primase”.
Consider `Nc1nc2c(ncn2[C@@H]2O[C@H](COP(=O)(O)OP(=O)(O)OP(=O)(O)O)[C@@H](O)[C@H]2O)c(=O)[nH]1` [GTP], for which the “1H-15N HSQC NMR titration” value in data set [2] (HBD-DNA complex with ATP) is “it could bind to the HBD domain in the same manner as for the dGTP substrate”.
On to `Nc1ncnc2c1ncn2[C@@H]1O[C@H](COP(=O)(O)OP(=O)(O)CP(=O)(O)O)[C@@H](O)[C@H]1O` [ATP^C], for which the “1H-15N HSQC NMR” value in data set [3] (added together with dGTP^C) is “both ATP^C and dGTP^C were rapidly added to the HBD-DNA^CT complex”. For the same molecule, the “31P CP-MAS solid-state NMR; 1H-15N HSQC NMR” value at functional pRN1 primase [4] is “indeed showing the bound dGTP^C and ATP^C as well as the DNA”.
Take `Nc1nc2c(ncn2[C@H]2C[C@H](O)[C@@H](COP(=O)(O)OP(=O)(O)OP(=O)(O)O)O2)c(=O)[nH]1` [dGTP]: the “1H-15N HSQC NMR titration” value in data set [2] (HBD-DNA complex with ATP, displaces one ATP) is given as “titration of dGTP in a solution of HBD-DNA^CT-2ATP led to the substitution of one ATP”. Moreover, the “time-resolved solution NMR of dinucleotide formation” value on functional pRN1 primase [5] (co-substrate ATP) is “active primase bound to DNA^CT and the cognate NTPs (ATP and dGTP)”.
As to `Nc1ncnc2c1ncn2[C@@H]1O[C@H](COP(=O)(O)OP(=O)(O)OP(=O)(O)O)[C@@H](O)[C@H]1O` [ATP], in data set [2] (HBD-DNA complex, two ATP bound), the “1H-15N HSQC NMR titration” value is “The data reveal that HBD binds one ATP and one dGTP”. Besides, at functional pRN1 primase [5] (co-substrate dGTP), the “time-resolved solution NMR of dinucleotide formation” value is reported as “dinucleotide formation with the cognate NTPs was terminated within several minutes”.
For `Nc1ncnc2c1ncn2[C@H]1C[C@H](O)[C@@H](COP(=O)(O)OP(=O)(O)OP(=O)(O)O)O1` [dATP], the “1H-15N HSQC NMR titration” value in data set [6] was “addition of dATP to the catalytic domain resulted in visible CSPs of V148 and S150”.
Turning to `Nc1nc2c(ncn2[C@H]2C[C@H](O)[C@@H](COP(=O)(O)OP(=O)(O)CP(=O)(O)O)O2)c(=O)[nH]1` [dGTP^C], the “31P CP-MAS solid-state NMR” value is “wt primase and the mutant H145A bound to DNA^CT, ATP^N and dGTP^C” at functional pRN1 primase [7]; “The isolated resonances of bound dGTP^C decrease in the solid state” at functional pRN1 primase [8]. The “1H-15N HSQC NMR” value in data set [3] (added together with ATP^C) was “both ATP^C and dGTP^C were rapidly added to the HBD-DNA^CT complex”.
As to CTGTGCTCA (ssDNA) [DNACT (GTG-motif template)], the binding result (in data set [9]; in data set [10]; in the data set with pRN1 primase H145A) was “binds” throughout.
